Test results as given in US20120004205A1, “IL-13 INDUCED GENE SIGNATURE FOR EOSINOPHILIC ESOPHAGITIS” (Cincinnati Children's Hospital Medical Center, priority 2008, published 2012).

Experiments:
STAT6:ER = assay: Eotaxin-3 promoter luciferase reporter in TE-7 cells cotransfected with STAT6:ER; type: cell-based, human; details: TE-7 cotransfected with eotaxin-3 promoter construct and STAT6:ER, within 24 hours
Method: Plasmids were constructed or obtained as described before Blanchard, C. et al., (2005) Int. J. Biochem Cell Biol. 37: 2559-2573. Briefly, plasmid denoted P800, P500 and P100 contained respectively the first 800 by 500 by or 100 by of the human eotaxin-3 gene promoter (pEO3) subcloned into KpnI/HindIII-digested pGL3-Basic (Promega) as previously described Blanchard, C. et al., (2005) Int. J. Biochem. Cell Biol. 37: 2559-2579. Directed mutagenesis of the eotaxin-3 promoter was performed using Quickchange Kit from Stratagene according to the manufacturer's instructions using 2 primer sets: (first set) 5′-CCCAACCACAAGAAggtacc[…]-3′ and 5′-[…] ggtacc TTCTGTGGTTGGG-3′ which include a KpnI restriction site in the -89 TTCtctcgGAA STAT6 consensus site and (second set) 5′-GTAACTTAGTTCAG ggatcc […]-3′ and 5′-[…] ggatcc CTGAACTAAGTTAC-3′ which include a […] restriction site in the -698 TTCactgGAA STAT6 consensus site. […]
Approximately 10^4 TE-7 cells per well (24 well plate) were plated on day 1 and transfected by Lipofectamine™ reagent on day 2. […] Cells were then lysed and the Firefly and Renilla luciferase activities were measured in a luminometor (Microlite, Dynatec Laboratories, Inc) using the Dual Luciferase Reporter assay system (Promega) in accordance with the manufacturer's instructions. […]

TE-7 cells [1] = assay: Eotaxin-3 mRNA stability with actinomycin-D; type: cell-based, human
[2] = system: TE-13 esophageal cell line; assay: Eotaxin-3 mRNA expression after IL-13 stimulation, real-time PCR; type: cell-based, human; details: TE-13 cells, IL-13 100 ng/mL
[3] = system: primary esophageal epithelial cells from patients with EE; assay: Global transcript-expression profile (microarray) of IL-13-stimulated primary cells; type: cell-based, human
Method: (§1) Briefly, biopsies were digested with trypsin twice.
For each patient, one distal esophageal mucosal biopsy sample was immersed in RNA, later RNA stabilization reagent (Qiagen) and stored at 4 C. for <15 days. Total RNA was extracted using the RNAeasy Mini Kit (Qiagen) according to the manufacturer's recommendations. Hybridization to DNA microarray was performed by the MicroarrayCore at Cincinnati Children's Hospital Medical Center, as previously reported Blanchard, C. et al., (2006) J. Clin. Invest. 116: 536-547. The genome wide human Affymetrix U133A plus 2.0 Genechip® was used, and gene transcript levels were determined using algorithms in the Microarray Analysis Suite and GeneSpring software (Silicon Genetics) as previously described Blanchard, C. et al., (2006) J. Clin. Invest. 116: 536-547. […] Response to therapy was defined as <1 eosinophils/high power field (hpf) and no epithelial cell hyperplasia as described herein.
The list of differentially expressed transcripts was subjected to gene ontology analysis using DAVID (database for annotation, visualization and integrated discovery) and EASE (expression analysis systematic explorer), a web-based (hyper text transfer protocol davidabccncifcrfgov) application that allows access to a relational database of functional annotations.
Primary esophageal epithelial cells from the esophagi of patients with EE were cultured and stimulated with 100 ng/mL IL-13 for 48 hours to identify IL-13-induced esophageal epithelial genes. The mRNA was subjected to global transcript-expression profile analysis and normalized pair wise to unstimulated controls. Genes were filtered to fold change in biopsy specimens from patients with EE compared with those from healthy patients and IL-13 stimulated epithelial cells. A highly significant positive correlation (P<0.0001, Spearman) between modified genes in biopsy specimens from patients with EE and in IL-13-stimulated keratinocytes was observed (FIG. 4C). […] Blanchard, C. et al., (2006) J. Clin. Invest.

[4] = system: primary esophageal keratinocytes from EE patients; assay: Eotaxin-3 protein release into supernatant ex vivo, ELISA; type: cell-based, human; details: IL-13 100 ng/mL
Method: as §1
(§2) Eotaxin-1, 2 and 3 Duo set ELISA were performed according to the manufacturer's instruction (R&D) and as previously described Blanchard, C. et al., (2006) J. Clin. Invest. 116: 536-547. IL-13 Quantikine® Kit (R&D) was used to quantify IL-13 protein levels. The detection limits were respectively […] for eotaxins-1, -2, -3 and IL-13, respectively. The optical density of each well was read at a wavelength of 450 nm.

[5] = system: TE-7 esophageal cell line; assay: Eotaxin-3 mRNA expression after IL-13 stimulation, real-time PCR; type: cell-based, human; details: TE-7 cells, IL-13 100 ng/mL
[6] = system: primary esophageal keratinocytes from EE patients; assay: IL-13-induced eotaxin expression ex vivo, real-time PCR; type: cell-based, human
From the text: as §1

TE-13 cells = assay: Eotaxin-3 protein released in culture supernatant, ELISA; type: cell-based, human; details: IL-13 100 ng/mL for 24 hours
Method: as §2

TE-7 cells [7] = assay: as above; type: cell-based, human; details: IL-13 100 ng/mL for 24 hours
Method: as §2

[8] = system: TE-6 esophageal cell line; assay: Eotaxin-3 mRNA expression after IL-13 stimulation, real-time PCR; type: cell-based, human; details: TE-6 cells, IL-13 100 ng/mL
[9] = system: TE-1 esophageal cell line; assay: as above; type: cell-based, human; details: TE-1 cells, IL-13 100 ng/mL
human eotaxin-3 promoter = assay: Eotaxin-3 promoter luciferase reporter in transfected TE-7 cells, IL-13 stimulation; type: cell-based
Method: Plasmids were constructed or obtained as described before Blanchard, C. et al., (2005) Int. J. Biochem Cell Biol. 37: 2559-2573. Briefly, plasmid denoted P800, P500 and P100 contained respectively the first 800 by 500 by or 100 by of the human eotaxin-3 gene promoter (pEO3) subcloned into KpnI/HindIII-digested pGL3-Basic (Promega) as previously described Blanchard, C. et al., (2005) Int. J. Biochem. Cell Biol. 37: […]. Directed mutagenesis of the eotaxin-3 promoter was performed using Quickchange Kit from Stratagene according to the manufacturer's instructions using 2 primer sets: (first set) 5′-CCCAACCACAAGAAggtacc[…]-3′ and 5′-[…] ggtacc TTCTGTGGTTGGG-3′ which include a KpnI restriction site in the -89 TTCtctcgGAA STAT6 consensus site and (second set) 5′-GTAACTTAGTTCAG ggatcc […]-3′ and 5′-[…] ggatcc CTGAACTAAGTTAC-3′ which include a […] restriction site in the -698 TTCactgGAA STAT6 consensus site. The STAT6:ER plasmid was constructed in the pCDNA3 plasmid as previously described Kamogawa, Y. et al., (1998) J. Immunol. 161:1074-1077.
Approximately 10^4 TE-7 cells per well (24 well plate) were plated on day 1 and transfected by Lipofectamine™ reagent on day 2. Briefly, […] of reporter plasmids were mixed with 3 μl of Lipofectamine™ reagent in […] of serum-free RPMI medium. In all transfection experiments, a plasmid with a Renilla luciferase reporter gene under the control of a thymidine kinase promoter (pHRL-TK, […]) was used as an internal control. In co-transfection experiments with DNSTAT6 or pCDNA3-STAT6:ER (ER-estrogen receptor) plasmids, the empty vectors pCEFL HA or pCDNA3 were added to each set of transfections, respectively, to ensure that each well received the same amount of DNA. Complete medium (0.5 mL) was added and cells were incubated for 48 h to 72 h. The transfection mixture was then replaced with fresh complete medium for an additional 12 h period before cytokine treatment. […] Cells were then lysed and the Firefly and Renilla luciferase activities were measured in a luminometor (Microlite, Dynatec Laboratories, Inc) using the Dual Luciferase Reporter assay system (Promega) in accordance with the manufacturer's instructions.
Immunol. 42: 295-303; Hoeck, J. and Woisetschlager, M., (2001) J. Immunol. 167: 3216-3222; Yuan, Q. et al., (2006) Eur. J. Immunol. 36: 2700-2714. To determine the STAT6 element or elements involved in the eotaxin-3 stimulation observed in esophageal cell lines, the TE-7 cell line was transiently transfected with the full-length eotaxin luciferase reporter plasmid and truncated versions (FIG. 3). […] The TE-7 cell line was transfected with truncated promoter constructs or with a full-length promoter containing specific mutations within the STAT6 binding sites to map the relevant cis-acting promoter sequences (FIG. 3B).

[10] = IL-13 100 ng/mL, 48 hours, P<0.05

In the case of CC/C(=C(\c1ccc(O)cc1)c1ccc(OCCN(C)C)cc1)c1ccccc1 [4-hydroxytamoxifene], the “induction of eotaxin-3 promoter luciferase activity” value (STAT6:ER) is reported as “significant (P<0.01) induction”.
For “IL-13: cytokine Interleukin 13 (Preprotech) added to culture media to stimulate esophageal cells”, the “stability of eotaxin-3 mRNA, IL-13 treated versus non-treated” value (TE-7 cells [1]) was “not significantly different”, the “Eotaxin-3 mRNA expression increase” value [2] was 1007 fold and the “genes downregulated by 2-fold or greater” value ([3]; IL-13 100 ng/mL, 48 hours) was 116 genes. For the same compound, the “genes downregulated by more than 1.5-fold” value ([3]; IL-13 100 ng/mL, 48 hours) was 553 genes, the “genes modified by 2-fold or greater” value ([3]; IL-13 100 ng/mL, 48 hours) was 371 genes and the “genes modified by more than 1.5-fold” value ([3]; IL-13 100 ng/mL, 48 hours) was 1333 genes. The “genes significantly modified compared with unstimulated cells (P<0.01)” value ([3]; IL-13 100 ng/mL, 48 hours) was 952 genes, the “genes significantly modified compared with unstimulated cells (P<0.05)” value ([3]; IL-13 100 ng/mL, 48 hours) was 4698 genes and the “genes upregulated by 2-fold or greater” value ([3]; IL-13 100 ng/mL, 48 hours) was 255 genes. For the same compound, the “genes upregulated by more than 1.5-fold” value ([3]; IL-13 100 ng/mL, 48 hours) was 780 genes, the “IL-13-induced genes overlapping with the EE transcriptome” value [3, 10] was 126 genes and the “share of the EE transcriptome overlapped by IL-13-induced genes” value [3, 10] was 22%. For the same compound, the “involucrin downregulation (microarray)” value ([3]; IL-13-stimulated cells) was 4.8 fold, the “TNFAIP6 expression (microarray)” value ([3]; IL-13-stimulated keratinocytes) was “highly overexpressed” and the “cadherin-26 upregulation (microarray)” value ([3]; IL-13-stimulated keratinocytes) was 50 fold. The “eotaxin-3 upregulation (microarray)” value ([3]; IL-13-stimulated keratinocytes) was 279 fold, the “eotaxin-1 and eotaxin-2 expression (microarray)” value ([3]; IL-13-treated primary keratinocyte cultures) was “not overexpressed” and the “release of eotaxin-3 protein into the supernatant” value [4] was 6.03 ± 0.8 ng/mL. For the same compound, the “Eotaxin-3 mRNA expression increase” value [5] was 77 fold, the “increase of eotaxin-3 mRNA expression” value ([6]; 48 hours after 10 ng/mL IL-13) was 1000 fold and the “increase of eotaxin-3 mRNA expression” value ([6]; 48 hours after 100 ng/mL IL-13) was 10.000 fold. The “eotaxin-3 released in the supernatant” value (TE-13 cells) was 0.55 ± 0.37 µg/mL, the “eotaxin-3 released in the supernatant” value (TE-7 cells [7]) was 2.5 ± 0.7 µg/mL and the “Eotaxin-3 mRNA expression increase” value [8] was 8 fold. For the same compound, the “Eotaxin-3 mRNA expression increase” value [9] was 4 fold, the “increase of luciferase activity, full-length reporter plasmid” value (human eotaxin-3 promoter; TE-7, IL-13 10 ng/mL) was 2.7+/−0.8 fold and the “increase of luciferase activity, full-length reporter plasmid” value (human eotaxin-3 promoter; TE-7, IL-13 100 ng/mL) was 10.8+/−2.2 fold. The “IL-13-induced luciferase activity, construct with mutated -89 binding site” value (human eotaxin-3 promoter; TE-7, after IL-13 stimulation) was “no increase in luciferase activity”, the “IL-13-induced promoter activity, construct P100 (truncated proximal STAT6 site)” value (human eotaxin-3 promoter; TE-7, after IL-13 stimulation) was “no activity” and the “IL-13-induced promoter activity, promoter containing 800 or 500 bp” value (human eotaxin-3 promoter; TE-7, after IL-13 stimulation) was “full IL-13-induced activity”.
